Results taken from PubChem BioAssay (NCI).
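In this assay, cells in 96-well plates receive the compound at five concentrations for 48 hours. Endpoints are linearly interpolated between the surrounding concentrations. TGI is the concentration that stops growth completely.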

What was measured:
Experiment in all cases: NCI tumour cell line growth inhibition, 48 h
[1] = system: CAKI-1 renal
[2] = system: A498 renal
[3] = system: OVCAR-5 ovarian
[4] = system: SF-268 CNS
[5] = system: XF 498 CNS
[6] = system: HOP-92 NSCLC
[7] = system: A549 NSCLC
[8] = system: SN12K1 renal
[9] = system: NCI-H23 lung
[10] = system: UACC-62 melanoma
[11] = system: MALME-3M melanoma
[12] = system: K-562 leukemia
[13] = system: SK-MEL-2 melanoma
[14] = system: U251 CNS
[15] = system: NCI/ADR-RES ovarian
[16] = system: HCC-2998 colon
[17] = system: IGROV1 ovarian
[18] = system: SF-295 CNS
[19] = system: COLO 205 colon
[20] = system: MOLT-4 leukemia
[21] = system: RXF 393 renal
[22] = system: UACC-257 melanoma
[23] = system: HCT-116 colon
[24] = system: SK-MEL-28 melanoma
[25] = system: SW-620 colon
[26] = system: P388/ADR leukemia
[27] = system: DLD-1 colon
[28] = system: KM20L2 colon
[29] = system: DMS 114 small cell lung
[30] = system: SK-MEL-5 melanoma
[31] = system: OVCAR-4 ovarian
[32] = system: SF-539 CNS
[33] = system: OVCAR-3 ovarian
[34] = system: EKVX NSCLC
[35] = system: DMS 273 small cell lung
[36] = system: SK-OV-3 ovarian
[37] = system: SNB-78 CNS
[38] = system: NCI-H226 lung
[39] = system: KM12 colon
[40] = system: NCI-H460 lung
[41] = system: OVCAR-8 ovarian
[42] = system: HT29 colon
[43] = system: HOP-62 NSCLC
[44] = system: P388 leukemia
[45] = system: LOX IMVI melanoma
[46] = system: NCI-H522 lung
[47] = system: M19-MEL melanoma
[48] = system: SN12C renal
[49] = system: SNB-75 CNS
[50] = system: SNB-19 CNS
[51] = system: HL-60(TB) leukemia
[52] = system: UO-31 renal
[53] = system: MCF7 breast
[54] = system: HCT-15 colon
[55] = system: CCRF-CEM leukemia
[56] = system: HOP-18 NSCLC
[57] = system: RPMI-8226 leukemia

**Q.** What does the source list for `O[C@H]1[C@H](O)[C@@H](O)CN2CC[C@H](O)[C@H]12`?
**A.** TGI [1]: > 100 µM; TGI [2]: > 100 µM; TGI [3]: > 100 µM; TGI [4]: > 100 µM; TGI [5]: > 100 µM; TGI [6]: > 100 µM; TGI [7]: > 100 µM; TGI [8]: > 100 µM; TGI [9]: > 100 µM; TGI [10]: > 100 µM; TGI [11]: > 100 µM; TGI [12]: > 100 µM; TGI [13]: > 100 µM; TGI [14]: > 100 µM; TGI [15]: > 100 µM; TGI [16]: > 100 µM; TGI [17]: > 100 µM; TGI [18]: > 100 µM; TGI [19]: > 100 µM; TGI [20]: > 100 µM; TGI [21]: > 100 µM; TGI [22]: > 100 µM; TGI [23]: > 100 µM; TGI [24]: > 100 µM; TGI [25]: > 100 µM; TGI [26]: > 100 µM; TGI [27]: > 100 µM; TGI [28]: > 100 µM; TGI [29]: > 100 µM; TGI [30]: > 100 µM; TGI [31]: > 100 µM; TGI [32]: > 100 µM; TGI [33]: > 100 µM; TGI [34]: > 100 µM; TGI [35]: > 100 µM; TGI [36]: > 100 µM; TGI [37]: > 100 µM; TGI [38]: > 100 µM; TGI [39]: > 100 µM; TGI [40]: > 100 µM; TGI [41]: > 100 µM; TGI [42]: > 100 µM; TGI [43]: > 100 µM; TGI [44]: > 100 µM; TGI [45]: > 100 µM; TGI [46]: > 100 µM; TGI [47]: > 79.4 µM; TGI [48]: > 100 µM; TGI [49]: > 100 µM; TGI [50]: > 100 µM; TGI [51]: > 39.8 µM; TGI [52]: > 100 µM; TGI [53]: > 100 µM; TGI [54]: > 100 µM; TGI [55]: > 100 µM; TGI [56]: > 100 µM; TGI [57]: > 100 µM

**Q.** Which results are given for `COc1ccc(CC(N)=O)cc1OC`?
**A.** TGI [1]: > 575 µM; TGI [2]: > 1250 µM; TGI [3]: > 1250 µM; TGI [4]: > 1250 µM; TGI [5]: > 1250 µM; TGI [6]: > 1170 µM; TGI [7]: > 1250 µM; TGI [8]: > 1250 µM; TGI [9]: > 1250 µM; TGI [10]: > 1250 µM; TGI [11]: > 1250 µM; TGI [12]: > 1250 µM; TGI [13]: > 1250 µM; TGI [14]: > 1250 µM; TGI [15]: > 1250 µM; TGI [16]: > 1250 µM; TGI [17]: > 1250 µM; TGI [18]: > 1250 µM; TGI [19]: > 1250 µM; TGI [20]: > 1250 µM; TGI [21]: > 1250 µM; TGI [22]: > 580 µM; TGI [23]: > 1250 µM; TGI [24]: > 1250 µM; TGI [25]: > 1250 µM; TGI [26]: > 1250 µM; TGI [27]: > 1250 µM; TGI [28]: > 1250 µM; TGI [29]: > 1250 µM; TGI [30]: > 1250 µM; TGI [31]: > 1250 µM; TGI [32]: > 1250 µM; TGI [33]: > 1250 µM; TGI [34]: > 1250 µM; TGI [35]: > 1250 µM; TGI [36]: > 1250 µM; TGI [37]: > 1250 µM; TGI [38]: > 1250 µM; TGI [39]: > 1250 µM; TGI [40]: > 1250 µM; TGI [41]: > 125 µM; TGI [42]: > 1250 µM; TGI [43]: > 1250 µM; TGI [44]: > 1250 µM; TGI [45]: > 1250 µM; TGI [46]: > 1250 µM; TGI [47]: > 1250 µM; TGI [48]: > 1250 µM; TGI [49]: > 1250 µM; TGI [50]: > 1250 µM; TGI [51]: > 1250 µM; TGI [52]: > 1250 µM; TGI [53]: > 1250 µM; TGI [54]: > 1250 µM; TGI [55]: > 1250 µM; TGI [56]: > 1250 µM; TGI [57]: > 1250 µM
